Earlier results on 54 compounds are cited in PMC6376154 (International Journal for Parasitology: Drugs and Drug …, 2019).

This data set concerns P. falciparum 3D7 asexual blood stage. The conditions noted are these: cited from earlier work.
Where [1] appears, read: MMV Malaria Box data sheet (supplement mmc2.xls), ref MMV data sheet, read-out: EC50_nM.
Setting [2] is: value(s) per source (GSK, GNF, StJude), separated by semicolon, ref ChEMBL-NTD, read-out: CHEMBL EC50.
[3] abbreviates: MMV Malaria Box data sheet, ref MMV data sheets.
Setting [4] is: MMV Malaria Box data sheet, ref MMV data sheets, read-out: EC50_nM.
Where [5] appears, read: source GNF, ref ChEMBL_NTD, read-out: CHEMBL EC50.
Setting [6] is: ChEMBL-NTD value per source (GNF, GSK, StJude), several values in a cell follow the order of the sources, read-out: CHEMBL EC50.
Where [7] appears, read: MMV Malaria Box sheet, ref MMV data sheets.
The mark [8] stands for this setting: MMV Malaria Box sheet, ref MMV data sheets, read-out: EC50_nM.
[9] abbreviates: MMV Malaria Box data sheet (supplement mmc2.xls), ref MMV data sheet.
[10] abbreviates: source GSK, ref ChEMBL_NTD, read-out: CHEMBL EC50.

Like-named read-outs stand apart in the source and are kept apart here.

In the case of `CCN(CC)CCNc1ncnc2c1[nH]c1ccc(Br)cc12` [MMV006545], the EC50 is, setting by setting: under setting [1], 707 nM; under setting [2], 288 nM.
As for `Cc1cc(C)c2c(c1)OCN(Cc1ccccc1Cl)C2` [MMV006558], the “percent_inh @ 5 uM” value under setting [3] was 98%. Moreover, the EC50 runs as follows: under setting [4], 268 nM; under setting [5], 192 nM.
As to `Clc1ccc2[nH]c3c(NCCCN4CCOCC4)ncnc3c2c1` [MMV006587], the EC50 by setting is: under setting [1], 700 nM; under setting [2], 109 nM.
`CCOC(=O)C1=CN(C)C=C(C(=O)OCC)C1c1cc(Br)c(OCC)c(OC)c1` [MMV006656]: the EC50 under setting [6] was 913 nM.
As for `CN(C)CCNc1cc(-c2ccccc2)nc2ccccc12` [MMV006704], under setting [7], the “percent_inh @ 2 uM” value was 92%. Besides, the EC50 is 4000 nM under setting [8] and 692 nM under setting [5].
Consider `Cc1cc(N2CCN(C3CCCC3)CC2)n2c(nc3ccccc32)c1C#N` [MMV006706], for which the EC50 was 683 nM under setting [1] and 743 nM under setting [2].
As for `Cc1cc(=O)oc2c1ccc1oc(C(=O)c3ccccc3)c(C)c12` [MMV006753], the “percent_inh @ 5 uM” value under setting [7] is 94%. The EC50 under setting [5] is 441 nM.
Turning to `CCOc1c(Br)cc(C2C(C(=O)OC)=CN(C)C=C2C(=O)OC)cc1OC` [MMV006764], the EC50 under setting [6] is 292 nM.
In the case of `COc1cc2cc(C(=O)Nc3ccccc3)c(N)nc2cc1OC` [MMV006767], the “percent_inh @ 5 uM” value under setting [9] is 99%.
As for `CC(C)CCNCC(O)Cn1c2ccccc2c2ccccc21` (stereo not shown) [MMV006787], under setting [7], the “percent_inh @ 5 uM” value was 97%. Also, the EC50 under setting [8] is 473 nM and the EC50 under setting [5] is 201 nM.
In the case of `CCCCc1c(C)nc2c(OC)cccc2c1O` [MMV006820], the “percent_inh @ 2 uM” value under setting [7] was 92%. For the same compound, the EC50 runs as follows: under setting [8], 4000 nM; under setting [5], 1690 nM.
With `COc1ccc(Nc2cc(C)nc(NCc3ccccc3)n2)cc1` [MMV006825], under setting [6], the EC50 is 151 nM.
As for `c1ccc2cc3c(Nc4ccc(N5CCOCC5)cc4)ccnc3cc2c1` [MMV006861], the “percent_inh @ 5 uM” value under setting [3] is on record as 97%. For the same compound, the EC50 by setting is: under setting [4], 251 nM; under setting [5], 672 nM.
As to `CCOC(=O)c1cnc2ccc(Cl)cc2c1NCCCN(C)C` [MMV006882], under setting [7], the “percent_inh @ 5 uM” value was 98%. Also, the EC50 is, setting by setting: under setting [8], 1190 nM; under setting [5], 826 nM.
Consider `C=CCc1c(C)nc2ccccc2c1O` [MMV006913], for which the “percent_inh @ 5 uM” value under setting [9] is listed as 85%. For the same compound, the EC50 is, setting by setting: under setting [1], 1290 nM; under setting [2], 707 nM.
On to `Cc1ccc(-c2cc3nc4c(c(O)n3n2)CCCC4)cc1` [MMV006937], for which the “percent_inh @ 5 uM” value under setting [3] is reported as 73%. Besides, the EC50 under setting [4] was 396 nM and the EC50 under setting [5] was 1600 nM.
For the compound `O=C(Nc1ccc(-c2nc3cc(NC(=O)c4ccc(Cl)cc4)ccc3[nH]2)cc1)c1ccc(Cl)cc1` [MMV006962], under “1.25 uM, solubility issue at 5 uM”, the “% inh. At 1.25 uM” value was “Solubility issue at 5 uM. % inh. At 1.25 uM is 48”. Also, the EC50 under setting [6] was 993 nM.
On to `CCOc1ccc2nc(C)cc(Nc3ccc(N(C)C)cc3)c2c1` [MMV007020], for which the EC50 under setting [6] was 344 nM.
Take `Cc1ccc2c(C)nc(Nc3nc(C)cc(-c4ccccc4)n3)nc2c1` [MMV007041]: the EC50 under setting [6] was 975 nM.
`CCOc1ccc(CN2CCN(CC(O)COc3ccc(OCC(O)CN4CCN(Cc5ccc(OCC)cc5)CC4)cc3)CC2)cc1` (stereo not shown) [MMV007092]: the EC50 under setting [6] is 1370 nM.
Consider `c1ccc(C2=Nc3ccccc3N=C(c3ccccc3)c3ccccc32)cc1` [MMV007113], for which, under setting [6], the EC50 was 678 nM.
Regarding `CCOC(=O)c1cnc2ccc(CC)cc2c1O` [MMV007116], the EC50 under setting [4] is 351 nM and the EC50 under setting [5] is 716 nM.
Take `OC1=C2C(=Nc3ccccc3SC2c2ccc(Br)cc2)c2ccccc21` (stereo not shown) [MMV007127]: the “percent_inh @ 5 uM” value under setting [7] is reported as 97%. Further, the EC50 is 567 nM under setting [8] and 337 nM under setting [5].
Take `Cc1ccc(N2C3c4ccccc4N(S(=O)(=O)c4ccc(C)cc4)C2c2ccccc2N3S(=O)(=O)c2ccc(C)cc2)cc1` [MMV007160]: the “percent_inh @ 5 uM” value under setting [3] is given as 97%. The EC50 reads like this: under setting [4], 24.8 nM; under setting [5], 720 nM.
Take `Cc1cc(Nc2ccc(OCc3ccccc3)cc2)nc2cc(O)ccc12` [MMV007181]: under setting [6], the EC50 was 73.6 nM.
As to `COc1ccccc1N1C(=N)SC(=Cc2ccc(OCc3ccccc3F)cc2)C1=O` [MMV007199], under setting [7], the “percent_inh @ 5 uM” value was 95%. Besides, the EC50 under setting [8] is 478 nM.
As for `COc1ccc(OC)c(C2C3=C(CC(C)(C)CC3=O)N(c3ccc(Cl)c(Cl)c3)C3=C2C(=O)CC(C)(C)C3)c1` [MMV007208], the “percent_inh @ 5 uM” value under setting [7] is recorded as 90%. The EC50 is 912 nM under setting [8] and 430 nM under setting [5].
As for `Cc1cccc(N2C(=O)C3C(C2=O)C2(c4ccccc4)C(=O)C3(c3ccccc3)C(c3ccc4c(c3)OCO4)=C2c2ccc3c(c2)OCO3)c1` (stereo not shown) [MMV007228], the EC50 under setting [6] was 1070 nM.
Regarding `Cc1ccc(F)cc1NC(=O)c1cc(Cl)ccc1Nc1ccccc1` [MMV007275], under setting [6], the EC50 is 191 nM.
As to `CCOc1ccc(Nc2ccnc3cc(Cl)ccc23)cc1` [MMV007285], the EC50 under setting [6] is 956 nM.
Consider `CCc1ccc(Nc2cc(C)nc3nc(C)nn23)cc1` [MMV007374], for which the “percent_inh @ 2 uM” value under setting [9] is recorded as 81%. In addition, the EC50 was 4000 nM under setting [1] and 574 nM under setting [2].
Regarding `COc1ccc(-c2nc3cc(Cc4ccc5[nH]c(-c6ccc(OC)cc6)nc5c4)ccc3[nH]2)cc1` [MMV007384], the “percent_inh @ 5 uM” value under setting [3] is on record as 98%. In addition, the EC50 was 176 nM under setting [4] and 234 nM under setting [5].
Take `Cc1ccccc1OCCSc1nc2ccc(NC(=O)c3cccs3)cc2s1` [MMV007396]: the EC50 under setting [6] is 497 nM.
`O=C(NCc1ccco1)C1CCN(S(=O)(=O)c2ccc(Br)cc2)CC1` [MMV007430]: the “percent_inh @ 5 uM” value under setting [9] is reported as 93%. Besides, the EC50 under setting [1] was 939 nM and the EC50 under setting [2] is 362 nM.
As to `COc1cc2c3cc1Oc1c(OC)c(OC)cc4c1C(Cc1ccc(O)c(c1)Oc1ccc(cc1)CC3N(C)CC2)N(C)CC4` (stereo not shown) [MMV007474], the EC50 under setting [6] is 997 nM.
On to `COc1ccc(CCNC(=O)c2cc(S(=O)(=O)N3CC(C)CC(C)C3)ccc2Sc2ccc(F)cc2)cc1OC` (stereo not shown) [MMV007557], for which the “percent_inh @ 5 uM” value under setting [7] is listed as 97%. Besides, the EC50 under setting [8] was 632 nM and the EC50 under setting [5] is 1050 nM.
On to `Cc1ccc(Cn2c(N3CCC(C(=O)NCc4cccs4)CC3)nc3ccccc32)cc1` [MMV007564], for which the “percent_inh @ 5 uM” value under setting [3] is 73%. Moreover, the EC50 under setting [4] is 947 nM, the EC50 under setting [5] is 529 nM and the EC50 under setting [10] is 748 nM.
On to `Cc1ccc(CSCc2ccc(C(=O)NC3CC3)o2)cc1` [MMV007571], for which the “percent_inh @ 5 uM” value under setting [9] is recorded as 97%. For the same compound, the EC50 was 635 nM under setting [1] and 418 nM under setting [2].
As to `O=C(Nc1ccc(C23CC4CC(CC(c5ccccc5)(C4)C2)C3)cc1)c1cccs1` [MMV007574], under setting [7], the “percent_inh @ 5 uM” value was 96%. In addition, the EC50 is 826 nM under setting [8] and 645 nM under setting [5].
Turning to `Cc1ccccc1OCCSc1nc2ccc(NC(=O)c3ccccc3)cc2s1` [MMV007577], under setting [7], the “percent_inh @ 5 uM” value is listed as 93%. The EC50 is, setting by setting: under setting [8], 1120 nM; under setting [5], 9760 nM.
Turning to `COc1ccc(C(=O)C(CCC(CNC(C)(C)C)C(=O)c2ccc(OC)cc2)CNC(C)(C)C)cc1` (stereo not shown) [MMV007591], the EC50 under setting [6] was 1120 nM.
Regarding `CC(=O)NCCc1nc2ccccc2n1Cc1ccc(C(C)C)cc1` [MMV007617], the “percent_inh @ 5 uM” value under setting [9] was 97%. Also, the EC50 under setting [1] is 1790 nM and the EC50 under setting [2] was 764 nM.
Regarding `Cc1ccc(C)c(-c2csc(Nc3ccc(C)c(C)c3)n2)c1` [MMV007654], the EC50 under setting [6] is 493 nM.
In the case of `CCCCCCOC(=O)C1=C(C)NC(=O)NC1c1ccccc1F` (stereo not shown) [MMV007686], the “percent_inh @ 5 uM” value under setting [3] is on record as 95%. For the same compound, the EC50 by setting is: under setting [4], 106 nM; under setting [5], 6760 nM.
For the compound `COc1ccc(C(C)=O)cc1N1C(=O)C2C(C1=O)C1(c3ccccc3)C(=O)C2(c2ccccc2)C(c2ccc(C)cc2)=C1c1ccc(C)cc1` (stereo not shown) [MMV007695], the “percent_inh @ 5 uM” value under setting [3] is reported as 96%. The EC50 is 179 nM under setting [4] and 2460 nM under setting [5].
As to `CCCCc1c(CCC)c(=N)c2ccccc2n1C` [MMV007764], under setting [6], the EC50 was 311 nM.
On to `CCOc1ccccc1NC(=O)CN1CCN(C(=O)c2ccco2)CC1` [MMV007791], for which the “percent_inh @ 5 uM” value under setting [7] was 83%. Moreover, under setting [5], the EC50 was 5460 nM.
With `COc1nc(Nc2ccc(C(C)C)cc2)nc(OC)n1` [MMV007808], the “percent_inh @ 5 uM” value under setting [9] is recorded as 88%. The EC50 reads like this: under setting [1], 1140 nM; under setting [2], 677 nM.
As for `COc1ccc2c(c1)OC(O)(C(F)(F)C(F)(F)F)CC2=O` (stereo not shown) [MMV007839], the EC50 runs as follows: under setting [4], 283 nM; under setting [5], 442 nM.
Consider `COc1ccc2nc(C)cc(Nc3ccc(Cl)cc3)c2c1` [MMV007875], for which, under setting [7], the “percent_inh @ 2 uM” value is reported as 95%. The EC50 under setting [8] is 2000 nM, the EC50 under setting [5] was 1230 nM and the EC50 under setting [10] is 946 nM.
On to `CCCCN(CCCC)S(=O)(=O)c1ccc(NC(=O)c2ccco2)cc1` [MMV007881], for which, under setting [7], the “percent_inh @ 5 uM” value is 78%. Moreover, the EC50 under setting [5] is 1420 nM.
Regarding `CCCCOc1ccc(C(=O)Nc2cc(C)on2)cc1` [MMV007906], the “percent_inh @ 5 uM” value under setting [9] is on record as 73%. Also, the EC50 under setting [2] was 3160 nM.
Consider `Cc1ccc(Nc2nc(-c3ccccn3)cs2)cc1` [MMV007907], for which, under setting [3], the “percent_inh @ 5 uM” value is on record as 79%. The EC50 reads like this: under setting [4], 350 nM; under setting [5], 407 nM.
For `O=c1nc(C=Cc2ccc(Cl)cc2)oc2ccccc12` [MMV007977], the “percent_inh @ 5 uM” value under setting [9] is 76%. Besides, under setting [1], the EC50 is 995 nM.
